Assay results from the NIST ThermoML archive (doi:10.1021/je050006+).
± gives the expanded uncertainty stated by the source.

Details: 101.33 kPa, Liquid

| mass density (283.15 K) | speed of sound (283.15 K) | mass density (298.15 K) | speed of sound (298.15 K) | mass density (313.15 K) | speed of sound (313.15 K) | SMILES |
| --- | --- | --- | --- | --- | --- | --- |
| 797.94 ± 0.45 kg/m3 | 1195.2 ± 3.2 m/s | 785.12 ± 0.47 kg/m3 | 1143.3 ± 3.1 m/s | 772.53 ± 0.49 kg/m3 | 1093.8 ± 3 m/s | CCO [ethanol] |
| 811.48 ± 0.59 kg/m3 | 1257.9 ± 3.5 m/s | 799.66 ± 0.6 kg/m3 | 1206 ± 3.4 m/s | 787.76 ± 0.61 kg/m3 | 1155.1 ± 3.3 m/s | CCCO [propan-1-ol] |
| 879.07 ± 0.55 kg/m3 | 1356.8 ± 3.7 m/s | 866.97 ± 0.55 kg/m3 | 1298.7 ± 3.5 m/s | 855.5 ± 0.56 kg/m3 | 1232.8 ± 3.4 m/s | C=C1CCC2CC1C2(C)C (stereo not drawn) [β-pinene] |
